Assay results taken from patent US8420592B2, “Methods of treatment using single doses of oritavancin” (The Medicines Company, priority 2008, dated 2013).

Experiments:
[1] = system: cSSSI due to gram-positive pathogens; assay: Phase 2 randomized double-blind study of three oritavancin dose regimens in cSSSI: clinical response at test-of-cure; format: in vivo, human; details: for Cure (cure and improvement), % of patients: TOC
Experimental: (§1) A phase 2, multi-center, randomized, double-blind, parallel, active-comparator study in which three dose regimens of oritavancin were explored as a treatment for cSSSI due to gram-positive pathogens was conducted using: a daily dose (200 mg) administered for three to seven days, a single dose (1200 mg), and an infrequent dose (800 mg dose with option for an additional 400 mg on Day 5).
(§2) Patients were randomized through an interactive voice response system in a 1:1:1 ratio to receive either 1) oritavancin […] daily dose: 200 mg IV daily for 3 to 7 days as determined by the investigator based on clinical criteria, 2) oritavancin single dose: 1200 mg oritavancin IV on Day 1, or; 3) oritavancin infrequent dose: 800 mg IV on Day 1 with optional 400 mg IV on Day 5 as determined by investigator based on clinical criteria. During randomization patients were stratified by disease categories of wound infection, major abscess, and cellulitis. Placebo IV (5% dextrose in water) was given to maintain the blind.
(§3) Analyses were performed on four patient populations: intent-to-treat (ITT), modified intent-to-treat (MITT), clinically evaluable (CE) and microbiologically evaluable (ME). The ITT population included patients who were randomized to treatment and received any amount of study medication. Two patients who were potentially unblinded were excluded from the ITT population for all efficacy analyses. The MITT population included all ITT patients with a gram-positive pathogen isolated at baseline.
(§4) The primary efficacy endpoint was the clinical response in the CE population at TOC, which occurred 20 to 28 days after study enrollment on Day 1. Clinical response was determined by the investigator as part of the end-of-therapy, TOC, and late follow-up procedures by assessing signs and symptoms including fever, pain, tenderness, erythema, induration, edema, purulent drainage, eschar, and devitalized tissue. A clinical response of cure, improvement, failure, or indeterminate was assigned at end-of-therapy and TOC by the investigator based on clinical signs and symptoms. At late follow-up, the investigator could assign the clinical response of relapse in addition to cure, improvement, or indeterminate. Only patients with a clinical response of cure or improvement at TOC were assessed for clinical response at late follow-up.
(§5) Cure was defined as resolution of purulent drainage, pain, edema, fever, erythema, tenderness, and induration. Serous drainage or aspirate and/or granulation tissue could be present. Improvement was defined as resolution of purulent drainage and, in the case of cellulitis, cessation of fever and pain. Residual erythema, edema, pain (in the case of wound or abscess), tenderness, and/or induration could be present as could serous drainage, granulation tissue, eschar, and/or devitalized tissue. Failure included any of the following: presence of purulent drainage (or aspirate) and/or fever; the unanticipated need for abscess drainage or removal of sutures (for treatment of infection)>48 hours after initiation of study therapy; or treatment with nonstudy systemic antibiotic having activity against gram-positive pathogen(s) for the primary infection site or use of topical antibiotics at the site of primary infection 24 hours or more after initiation of study medication therapy.
The primary efficacy endpoint was clinical response (either cure or improvement versus failure) at TOC in the CE population. The primary efficacy analyses were a comparison of the proportions of CE patients with a clinical response of cure (defined as investigator assessment of cure or improvement) in the daily dose group compared to, 1) the single dose group and 2) the infrequent dose group. Adjusted estimates for the differences in response rates and the corresponding confidence intervals (CI) were constructed using the Mantel-Haenszel method stratified by disease category.

Streptococcus agalactiae = assay: Phase 2 cSSSI study: cure rate by baseline pathogen; format: in vivo; details: Streptococcus agalactiae at baseline
Experimental: as §4, §5
(§6) Blood and infection site cultures were obtained within three days of enrollment (often done at the time of enrollment). End-of-therapy, TOC, and late follow-up (or at early relapse) cultures were obtained from the infection site if clinically indicated. […] Specimens were cultured and pathogens were identified at each investigative site's certified laboratory. All isolated gram-positive pathogen(s) that were obtained from the infection site at baseline/randomization and up to and including the TOC time point were subcultured and sent to a central laboratory (Covance Clinical Laboratories, Indianapolis, Ind.) for confirmatory identification and susceptibility testing. In cases of discrepancy between the local and the central laboratory, central laboratory results were used.

Streptococcus pyogenes = assay: as above; format: in vivo; details: Streptococcus pyogenes at baseline
Experimental: as §4, §5, §6

[2] = Phase 2 cSSSI study: safety and tolerability; format: in vivo, human
Experimental: as §1, §2, §3

[3] = Clinically evaluable, cellulitis
[4] = Clinically evaluable, major abscess
[5] = Clinically evaluable, Mantel-Haenszel stratified by disease
[6] = Intent to treat, Mantel-Haenszel stratified by disease
[7] = Microbiologically evaluable, Mantel-Haenszel stratified by disease
[8] = Modified intent-to-treat, Mantel-Haenszel stratified by disease

Structure (SMILES): CN[C@H](CC(C)C)C(=O)N[C@H]1C(=O)N[C@@H](CC(N)=O)C(=O)N[C@H]2C(=O)N[C@H]3C(=O)N[C@H](C(=O)N[C@H](C(=O)O)c4cc(O)cc(O)c4-c4cc3ccc4O)[C@H](O[C@H]3C[C@](C)(N)[C@@H](O)[C@H](C)O3)c3ccc(c(Cl)c3)Oc3cc2cc(c3O[C@@H]2O[C@H](CO)[C@@H](O)[C@H](O)[C@H]2O[C@H]2C[C@](C)(NCc3ccc(-c4ccc(Cl)cc4)cc3)[C@@H](O)[C@H](C)O2)Oc2ccc(cc2Cl)[C@H]1O [Oritavancin, N-(4-(4-chlorophenyl)benzyl)A82846B]
- Estimated Difference in cure rate 800 mg − 200 mg [1, 3]: 14.4%
- Estimated Difference in cure rate 1200 mg − 200 mg [1, 3]: 29.2%
- Cure (cure and improvement), % of patients ([1]; Clinically evaluable, cellulitis, 200 mg IV daily for 3 to 7 days): 58.3%
- Cure (cure and improvement), % of patients ([1]; Clinically evaluable, cellulitis, 800 mg IV Day 1 with optional 400 mg Day 5): 72.7%
- Cure (cure and improvement), % of patients ([1]; Clinically evaluable, cellulitis, single dose 1200 mg IV Day 1): 87.5%
- Estimated Difference in cure rate 800 mg − 200 mg [1, 4]: −4.8%
- Estimated Difference in cure rate 1200 mg − 200 mg [1, 4]: −2.3%
- Cure (cure and improvement), % of patients ([1]; Clinically evaluable, major abscess, 200 mg IV daily for 3 to 7 days): 92.3%
- Cure (cure and improvement), % of patients ([1]; Clinically evaluable, major abscess, 800 mg IV Day 1 with optional 400 mg Day 5): 87.5%
- Cure (cure and improvement), % of patients ([1]; Clinically evaluable, major abscess, single dose 1200 mg IV Day 1): 90.0%
- Estimated Difference in cure rate 800 mg − 200 mg ([1]; Clinically evaluable, wound): 6.6%
- Estimated Difference in cure rate 1200 mg − 200 mg ([1]; Clinically evaluable, wound): 1.3%
- Cure (cure and improvement), % of patients ([1]; Clinically evaluable, wound, 200 mg IV daily for 3 to 7 days): 65.4%
- Cure (cure and improvement), % of patients ([1]; Clinically evaluable, wound, 800 mg IV Day 1 with optional 400 mg Day 5): 72.0%
- Cure (cure and improvement), % of patients ([1]; Clinically evaluable, wound, single dose 1200 mg IV Day 1): 66.7%
- Estimated Difference in cure rate 800 mg − 200 mg [1, 5]: 5.2%
- Estimated Difference in cure rate 1200 mg − 200 mg [1, 5]: 8.6%
- Cure (cure and improvement), % of patients ([1]; Clinically evaluable, 200 mg IV daily for 3 to 7 days): 72.4%
- Cure (cure and improvement), % of patients ([1]; Clinically evaluable, 800 mg IV Day 1 with optional 400 mg Day 5): 77.5%
- Cure (cure and improvement), % of patients ([1]; Clinically evaluable, single dose 1200 mg IV Day 1): 81.5%
- Cure rate ([1]; Clinically evaluable, infrequent dose group, 800 mg Day 1 plus optional 400 mg Day 5): 77.1%
- Cure rate ([1]; Clinically evaluable, infrequent dose group, only 800 mg on Day 1): 78.3%
- Estimated Difference in cure rate 800 mg − 200 mg [1, 6]: 5.1%
- Estimated Difference in cure rate 1200 mg − 200 mg [1, 6]: 8.7%
- Cure (cure and improvement), % of patients ([1]; Intent to treat, 200 mg IV daily for 3 to 7 days): 72.4%
- Cure (cure and improvement), % of patients ([1]; Intent to treat, 800 mg IV Day 1 with optional 400 mg Day 5): 78.2%
- Cure (cure and improvement), % of patients ([1]; Intent to treat, single dose 1200 mg IV Day 1): 81.8%
- Estimated Difference in cure rate 800 mg − 200 mg [1, 7]: 11.0%
- Estimated Difference in cure rate 1200 mg − 200 mg [1, 7]: 8.5%
- Cure (cure and improvement), % of patients ([1]; Microbiologically evaluable, 200 mg IV daily for 3 to 7 days): 69.1%
- Cure (cure and improvement), % of patients ([1]; Microbiologically evaluable, 800 mg IV Day 1 with optional 400 mg Day 5): 81.3%
- Cure (cure and improvement), % of patients ([1]; Microbiologically evaluable, single dose 1200 mg IV Day 1): 79.3%
- Estimated Difference in cure rate 800 mg − 200 mg [1, 8]: 11.1%
- Estimated Difference in cure rate 1200 mg − 200 mg [1, 8]: 10.1%
- Cure (cure and improvement), % of patients ([1]; Modified intent-to-treat, 200 mg IV daily for 3 to 7 days): 68.8%
- Cure (cure and improvement), % of patients ([1]; Modified intent-to-treat, 800 mg IV Day 1 with optional 400 mg Day 5): 80.6%
- Cure (cure and improvement), % of patients ([1]; Modified intent-to-treat, single dose 1200 mg IV Day 1): 80.3%
- Patients with cellulitis who failed having unplanned surgical procedures or interventions ([1]; daily dose group (200 mg)): 29%
- Relapse in CE patients ([1]; daily dose group, late follow-up): no patients
- Patients with cellulitis who failed having unplanned surgical procedures or interventions ([1]; infrequent dose group (800 mg)): 7%
- Relapse rate in CE patients ([1]; infrequent dose group, late follow-up): 3.7%
- Patients with cellulitis who failed having unplanned surgical procedures or interventions ([1]; single dose group (1200 mg), n/total): 0/9
- Relapse rate in CE patients ([1]; single dose group, late follow-up): 1.6%
- % of patients cured (cure and improvement) (Streptococcus agalactiae; 200 mg daily dose): 33.3%
- % of patients cured (cure and improvement) (Streptococcus agalactiae; 800 mg infrequent dose): 100%
- % of patients cured (cure and improvement) (Streptococcus agalactiae; 1200 mg single dose): 100%
- % of patients cured (cure and improvement) (Streptococcus pyogenes; 200 mg daily dose): 66.7%
- % of patients cured (cure and improvement) (Streptococcus pyogenes; 800 mg infrequent dose): 100%
- % of patients cured (cure and improvement) (Streptococcus pyogenes; 1200 mg single dose): 100%
- Patients with a serious adverse event ([2]; all groups (25 patients)): 8.3%
- Early discontinuation of study medication for lack of efficacy ([2]; all three treatment groups together (10/302)): 3.3%
- Adverse events being mild ([2]; daily dose group): 51.8%
- Adverse events considered mild or moderate in intensity ([2]; daily dose group): 85.7%
- Incidence of serious adverse events ([2]; daily dose group): 11%
- Patients who discontinued study medication due to an adverse event ([2]; daily dose group): 3.0%
- Patients with phlebitis assessed as related to study medication ([2]; daily dose group): 3.0%
- Patients who died during the study (n/total) ([2]; daily dose group, none related to study medication): 3/100
- Adverse events being mild ([2]; infrequent dose group): 60.3%
- Adverse events considered mild or moderate in intensity ([2]; infrequent dose group): 95.2%
- Incidence of serious adverse events ([2]; infrequent dose group): 6.8%
- Patients who discontinued study medication due to an adverse event ([2]; infrequent dose group): 1.0%
- Patients with phlebitis assessed as related to study medication ([2]; infrequent dose group): 8.7%
- Patients with related phlebitis ([2]; infrequent dose group, 800 mg only): 11.8%
- Patients with related phlebitis ([2]; infrequent dose group, 800 mg plus the 400 mg dose): 7.2%
- Patients who died during the study (n/total) ([2]; infrequent dose group, none related to study medication): 2/103
- Adverse events being mild ([2]; single dose group): 58.2%
- Adverse events considered mild or moderate in intensity ([2]; single dose group): 94.5%
- Incidence of serious adverse events ([2]; single dose group): 7.1%
- Patients who died during the study (n/total) ([2]; single dose group): 0/99
- Patients who discontinued study medication due to an adverse event ([2]; single dose group): 3.0%
- Patients with phlebitis assessed as related to study medication ([2]; single dose group): 4.0%
- Serious adverse event investigator-assessed as related to study medication ([2]; single dose group (dyspnoea; hypersensitivity)): Two
- Blood creatine phosphokinase (CPK) increase ([2]; single dose group compared to the daily and infrequent dose groups): higher incidence
